Source: patent US20250388605A1, “HETEROBIFUNCTIONAL COMPOUNDS AND METHODS OF TREATING DISEASE” (Halda Therapeutics OpCo, Inc., priority 2022, published 2025)

Legend:
androgen receptor = biological target: T1, androgen receptor (Homo sapiens, UniProt P10275); experiment: Assay for binding affinity to androgen receptor ([3H]methyltrienolone radioligand competition, cell cytosol); conditions: binding to the androgen receptor, 1 nM [3H]methyltrienolone, 24 hr at 4° C.
T1 construct: host or cells: unnamed cells, cytosolic fraction
T1 sequence (P10275 1-920): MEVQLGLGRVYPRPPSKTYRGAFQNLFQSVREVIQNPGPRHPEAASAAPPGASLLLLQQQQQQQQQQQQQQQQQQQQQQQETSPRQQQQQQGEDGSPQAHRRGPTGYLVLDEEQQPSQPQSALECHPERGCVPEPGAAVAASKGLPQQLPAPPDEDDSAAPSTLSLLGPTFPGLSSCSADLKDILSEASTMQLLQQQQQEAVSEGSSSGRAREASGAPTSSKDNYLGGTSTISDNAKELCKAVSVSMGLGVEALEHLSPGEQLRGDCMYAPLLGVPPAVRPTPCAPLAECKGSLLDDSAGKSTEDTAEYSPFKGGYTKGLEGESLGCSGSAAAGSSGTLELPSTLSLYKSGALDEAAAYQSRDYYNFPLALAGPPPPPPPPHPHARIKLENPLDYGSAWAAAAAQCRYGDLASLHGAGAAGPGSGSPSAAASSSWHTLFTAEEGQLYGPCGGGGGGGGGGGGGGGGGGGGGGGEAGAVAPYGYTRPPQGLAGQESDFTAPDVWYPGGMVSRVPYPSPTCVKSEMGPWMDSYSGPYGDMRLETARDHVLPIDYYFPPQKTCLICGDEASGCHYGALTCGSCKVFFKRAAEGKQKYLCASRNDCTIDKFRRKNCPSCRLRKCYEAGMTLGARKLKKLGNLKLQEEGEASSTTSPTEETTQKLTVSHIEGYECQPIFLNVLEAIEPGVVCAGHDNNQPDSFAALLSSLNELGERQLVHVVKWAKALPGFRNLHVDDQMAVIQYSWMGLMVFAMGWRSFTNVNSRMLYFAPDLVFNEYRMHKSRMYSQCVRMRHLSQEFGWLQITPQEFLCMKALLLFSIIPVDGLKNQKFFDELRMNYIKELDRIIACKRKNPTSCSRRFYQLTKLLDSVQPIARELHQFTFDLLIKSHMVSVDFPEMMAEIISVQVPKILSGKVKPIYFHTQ
Method: Fractions of cell cytosol ([…]) were incubated for 24 hr at 4° C. with 1 nM [^3H]methyltrienolone in the absence or presence of the test compound in a buffer containing 25 mM Hepes-Tris (pH 7.4), 1 mM EDTA, 10 mM Na2MoO4, 2 mM DTT, 5 μM triamcinolone acetonide, and 10% glycerol. Nonspecific binding was determined in the presence of […] testosterone. Following incubation, the samples were filtered rapidly under vacuum through glass fiber filters (GF/B, Packard) presoaked with 0.3% PEI and rinsed several times with ice-cold 50 mM Tris-HCl using a 96-sample cell harvester (Unifilter, Packard). The filters were dried then counted for radioactivity in a scintillation counter (Topcount, Packard) using a scintillation cocktail (Microscint 0, Packard). The results are expressed as a percent inhibition of the control radioligand specific binding. The standard reference compound is testosterone, which is tested in each experiment at several concentrations to obtain a competition curve from which its IC50 is calculated.

[1] = tested on: T-Rex 293 cell line SC3 cells lacking increased expression of androgen receptor protein; experiment: Cellular growth inhibition, T-Rex 293 SC3 cells without doxycycline (no increased androgen receptor expression), CellTiter-Glo; type: cell-based; conditions: T-Rex 293 SC3 cells not exposed to doxycycline (no increased androgen receptor expression), 72 hours
Method in brief: (§1)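 Growth inhibition is measured in an inducible AR-expressing T-Rex 293 clone, SC3, cultured with or without 10 ng/mL doxycycline in hormone-depleted medium. Test compounds are applied for 72 hours. GI50 values derive from CellTiter-Glo 2.0 signal fitted by four-parameter regression.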

VCaP cells = experiment: Cellular growth inhibition assay for VCaP cells, CellTiter-Glo; type: cell-based, human; conditions: 72 hours
Method in brief: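 GI50 values come from four-parameter curve fits of luminescence data normalized to a zero baseline. Compound, in medium with 0.5% DMSO, was added one day after plating and left for 72 h before CellTiter-Glo 2.0 addition.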

[2] = tested on: T-Rex 293 cell line SC3 cells having increased expression of androgen receptor protein due to exposure to doxycycline; experiment: Cellular growth inhibition, T-Rex 293 SC3 cells with doxycycline (increased androgen receptor expression), CellTiter-Glo; type: cell-based; conditions: T-Rex 293 SC3 cells with 10 ng/mL doxycycline (increased androgen receptor expression), 72 hours, CellTiter-Glo 2.0
Method in brief: as §1

[3] = biological target: T2, progesterone receptor ligand binding domain (GST-tagged PR LBD) (Homo sapiens, UniProt P06401); experiment: FP Assay for Binding Affinity to Progesterone Receptor (PolarScreen Progesterone Receptor Competitor Assay Kit); conditions: fluorescence polarization, Fluormone tracer, 2 hours at room temperature
T2 construct: purchased Life Technologies A15905 or a15906
T2 sequence (P06401 679-913 limits assumed): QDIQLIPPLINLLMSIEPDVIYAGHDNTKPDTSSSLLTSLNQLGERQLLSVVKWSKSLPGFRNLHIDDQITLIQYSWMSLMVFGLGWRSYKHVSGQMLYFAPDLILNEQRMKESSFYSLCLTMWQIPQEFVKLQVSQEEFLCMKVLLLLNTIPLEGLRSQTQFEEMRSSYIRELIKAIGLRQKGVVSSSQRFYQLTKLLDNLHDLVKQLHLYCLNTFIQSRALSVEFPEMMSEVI
Method: Exemplary compounds were tested for ability to bind to the progesterone receptor ligand binding domain (LBD).
Compounds were tested using the PolarScreen™ Progesterone Receptor Competitor Assay Kit (Life Technologies Cat #A15905 or a15906), as per the manufacturer's instructions. Briefly, GST-tagged PR LBD, Fluormone tracer, and compound were mixed and incubated for 2 hours at room temperature in the dark. Following incubation, the plates were spun at 3000×g for 30 seconds, then sealed with an optical adhesive cover, and fluorescence polarization was measured using appropriate excitation and emission filters with an EnVision Plate Reader (Perkin Elmer). Compound concentration vs. mP value were plotted in Prism (GraphPad). A four-parameter non-linear regression curve fit was applied to dose-response data to determine the half-maximal inhibitory concentration (IC50) for each test compound.

T47D cells = experiment: Cellular Growth Inhibition Assay for T47D Cells (CellTiter-Glo); type: cell-based, human; conditions: 72 hours
Method in brief: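 GI50 values derive from four-parameter regression of CellTiter-Glo 2.0 luminescence, using zero luminescence as baseline. Human breast cancer T47D cells (3000/well; DMEM, 10% FBS, 0.2 units/mL insulin) were exposed for 72 h to compound dilutions at 0.5% DMSO, with dosing starting 24 h after seeding.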

progesterone receptor = biological target: T3, progesterone receptor (Homo sapiens, UniProt P06401); experiment: PR Human Progesterone NHR Binding (Agonist Radioligand) Assay, [3H]progesterone, T47D cytosolic fractions; conditions: 0.5 nM [3H]progesterone, 1 hour at 4° C.
T3 sequence (P06401 679-933 limits assumed): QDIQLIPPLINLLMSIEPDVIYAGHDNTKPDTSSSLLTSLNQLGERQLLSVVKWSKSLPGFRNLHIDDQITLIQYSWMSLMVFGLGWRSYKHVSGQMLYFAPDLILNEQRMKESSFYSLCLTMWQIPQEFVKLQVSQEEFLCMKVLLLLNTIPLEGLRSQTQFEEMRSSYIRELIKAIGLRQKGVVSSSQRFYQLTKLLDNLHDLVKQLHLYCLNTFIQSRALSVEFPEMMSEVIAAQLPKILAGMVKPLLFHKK
Method: Exemplary compounds were tested for ability to bind to the progesterone receptor.
Compounds were tested using the PR Human Progesterone NHR Binding (Agonist Radioligand) Assay, Cerep at Eurofins Discovery using a modified version of the protocol from Sarup et al. (Cancer Res 1988; 48:5071-5078). Briefly, cytosolic fractions of T47D cells were incubated with 0.5 nM [^3H]progesterone for 1 hour at 4° C. in the absence or presence of the test compound. Nonspecific binding was determined in the presence of […] promegestone. Reactions were subjected to scintillation counting. Results are expressed as a percent inhibition of the control radioligand specific binding.

CCS(=O)(=O)Nc1ccc(Oc2cccc(OCCOC3CCN(c4ccc(C(=O)N[C@H]5C(C)(C)[C@H](Oc6ccc(C#N)c(Cl)c6)C5(C)C)cc4)CC3)c2)c(-c2cn(C)c(=O)c3[nH]ccc23)c1 [Compound I-69, N-((1r, 3r)-3-(3-chloro-4-cyanophenoxy)-2,2,4,4-tetramethylcyclobutyl)-4-(4-(2-(3-(4-(ethylsulfonamido)-2-(6-methyl-7-oxo-6,7-dihydro-1H-pyrrolo[2,3-c]pyridin-4-yl)phenoxy)phenoxy)ethoxy)piperidin-1-yl)benzamide]
Ki (androgen receptor): < 50 nM
GI50 [1]: < 500 nM
GI50 (VCaP cells; Homo sapiens): < 500 nM
GI50 [2]: < 500 nM

CCS(=O)(=O)Nc1ccc(Oc2cccc(OCCOC3CCN(c4ccc(C(=O)N[C@H]5C(C)(C)[C@H](Oc6ccc(C#N)c(Cl)c6)C5(C)C)nc4)CC3)c2)c(-c2cn(C)c(=O)c3[nH]ccc23)c1 [Compound I-72, N-((1r, 3r)-3-(3-chloro-4-cyanophenoxy)-2,2,4,4-tetramethylcyclobutyl)-5-(4-(2-(3-(4-(ethylsulfonamido)-2-(6-methyl-7-oxo-6,7-dihydro-1H-pyrrolo[2,3-c]pyridin-4-yl)phenoxy)phenoxy)ethoxy)piperidin-1-yl)picolinamide]
Ki (androgen receptor): 50 to 500 nM
GI50 [1]: < 500 nM
GI50 (VCaP cells; Homo sapiens): < 500 nM
GI50 [2]: < 500 nM

CCS(=O)(=O)Nc1ccc(Oc2cccc(OCCOC3CCN(c4cnc(C(=O)N[C@H]5C(C)(C)[C@H](Oc6ccc(C#N)c(Cl)c6)C5(C)C)nc4)CC3)c2)c(-c2cn(C)c(=O)c3[nH]ccc23)c1 [Compound I-73, N-((1r, 3r)-3-(3-chloro-4-cyanophenoxy)-2,2,4,4-tetramethylcyclobutyl)-5-(4-(2-(3-(4-(ethylsulfonamido)-2-(6-methyl-7-oxo-6,7-dihydro-1H-pyrrolo[2,3-c]pyridin-4-yl)phenoxy)phenoxy)ethoxy)piperidin-1-yl)pyrimidine-2-carboxamide]
Ki (androgen receptor): 50 to 500 nM
GI50 [1]: < 500 nM
GI50 (VCaP cells; Homo sapiens): < 500 nM
GI50 [2]: < 500 nM

Cn1cc(-c2cc(C(C)(C)O)ccc2Oc2cccc(OCCN3CC4(C3)CN(c3ncc(C(=O)N[C@H]5C(C)(C)[C@H](Oc6ccc(C#N)c(Cl)c6)C5(C)C)cn3)C4)c2F)c2cc[nH]c2c1=O [Compound I-229]
IC50 [3]: 50 to 500 nM
GI50 [1]: 500 to 1500 nM
GI50 (T47D cells): < 500 nM
GI50 (VCaP cells): < 500 nM
GI50 [2]: < 500 nM

Cn1cc(-c2cc(C(C)(C)O)ccc2Oc2ccc(OCC3CCN(c4ncc5c(n4)CN([C@H]4C(C)(C)[C@H](Oc6ccc(C#N)c(Cl)c6)C4(C)C)C5=O)CC3)cc2)c2cc[nH]c2c1=O [Compound I-233]
IC50 [3]: > 2500 nM
GI50 [1]: > 3000 nM
GI50 (T47D cells; Homo sapiens): 500 to 1500 nM
GI50 (VCaP cells; Homo sapiens): < 500 nM
GI50 [2]: 500 to 1500 nM

CCS(=O)(=O)c1ccc(Oc2cccc(CCCC3CCN(c4ncc(C(=O)N[C@H]5C(C)(C)[C@H](Oc6ccc(C#N)c(Cl)c6)C5(C)C)cn4)CC3)c2F)c(-c2cn(C)c(=O)c3[nH]ccc23)c1 [Compound I-245]
IC50 [3]: 500 to 2500 nM
GI50 [1]: > 3000 nM
GI50 (T47D cells): < 500 nM
GI50 (VCaP cells): 500 to 1500 nM
GI50 [2]: < 500 nM

Cn1cc(-c2cc(C(C)(C)O)ccc2Oc2ccc(N3CC(CC4CCN(c5cnc(C(=O)N[C@H]6C(C)(C)[C@H](Oc7ccc(C#N)c(C(F)(F)F)c7)C6(C)C)cn5)CC4)C3)cc2)c2cc[nH]c2c1=O [Compound I-373]
Ki (progesterone receptor): 500 to 2500 nM
GI50 (T47D cells; Homo sapiens): < 500 nM
